Tested on: virgin, female Sprague-Dawley rats (bladder function)
Assay: Cystometric testing on conscious, virgin rats
Assay type: in vivo, rat
[1] = 0.1 mg/kg i.v., Diff.: change relative to the initial value
[2] = 0.1 mg/kg i.v., h: after administration, at maximum action
[3] = 0.1 mg/kg i.v., v: before administration (initial value)
[4] = 0.3 mg/kg i.v., Diff.: change relative to the initial value
[5] = 0.3 mg/kg i.v., h: after administration, at maximum action
[6] = 0.3 mg/kg i.v., v: before administration (initial value)
[7] = 0.5 mg/kg i.v., Diff.: change relative to the initial value
[8] = 0.5 mg/kg i.v., h: after administration, at maximum action
[9] = 0.5 mg/kg i.v., v: before administration (initial value)
[10] = 5.0 mg/kg i.v., Diff.: change relative to the initial value
[11] = 5.0 mg/kg i.v., h: after administration, at maximum action
[12] = 5.0 mg/kg i.v., v: before administration (initial value)

COc1cccc([C@@]2(O)CCCC[C@@H]2CN(C)C)c1 [(+)-Tramadol, (+)-tramadol]
Basal pressure [1]: Diff.: −4%
Bladder capacity [1]: Diff.: +18%
Inter-contraction interval [1]: Diff.: +33%
Micturition pressure [1]: Diff.: −20%
Micturition volume [1]: Diff.: +7%
Residual volume [1]: Diff.: 44%
Threshold pressure [1]: Diff.: +48%
Basal pressure [2]: h: 3.85 ± 0.46 cm H2O
Bladder capacity [2]: h: 1.07 ± 0.13 ml
Inter-contraction interval [2]: h: 7.13 ± 0.85 min
Micturition pressure [2]: h: 55 ± 8 cm H2O
Micturition volume [2]: h: 0.80 ± 0.09 ml
Residual volume [2]: h: 0.23 ± 0.07 ml
Threshold pressure [2]: h: 11.63 ± 1.05 cm H2O
Basal pressure [3]: v: 4.01 ± 0.57 cm H2O
Bladder capacity [3]: v: 0.91 ± 0.11 ml
Inter-contraction interval [3]: v: 5.35 ± 0.63 min
Micturition pressure [3]: v: 69 ± 11 cm H2O
Micturition volume [3]: v: 0.75 ± 0.12 ml
Residual volume [3]: v: 0.16 ± 0.01 ml
Threshold pressure [3]: v: 7.87 ± 1.51 cm H2O
Basal pressure [4]: Diff.: +10%
Bladder capacity [4]: Diff.: +39%
Inter-contraction interval [4]: Diff.: +19%
Micturition pressure [4]: Diff.: −15%
Micturition volume [4]: Diff.: +13%
Residual volume [4]: Diff.: +167%
Threshold pressure [4]: Diff.: +95%
Basal pressure [5]: h: 4.95 ± 0.19 cm H2O
Bladder capacity [5]: h: 1.38 ± 0.14 ml
Inter-contraction interval [5]: h: 7.21 ± 0.72 min
Micturition pressure [5]: h: 60 ± 5 cm H2O
Micturition volume [5]: h: 0.97 ± 0.13 ml
Residual volume [5]: h: 0.40 ± 0.04 ml
Threshold pressure [5]: h: 16.01 ± 1.63 cm H2O
Basal pressure [6]: v: 4.50 ± 0.29 cm H2O
Bladder capacity [6]: v: 0.99 ± 0.08 ml
Inter-contraction interval [6]: v: 6.06 ± 0.49 min
Micturition pressure [6]: v: 71 ± 4 cm H2O
Micturition volume [6]: v: 0.86 ± 0.07 ml
Residual volume [6]: v: 0.15 ± 0.01 ml
Threshold pressure [6]: v: 8.21 ± 0.42 cm H2O
Basal pressure [7]: Diff.: +13%
Bladder capacity [7]: Diff.: +18%
Inter-contraction interval [7]: Diff.: +21%
Micturition pressure [7]: Diff.: −22%
Micturition volume [7]: Diff.: +22%
Residual volume [7]: Diff.: −14%
Threshold pressure [7]: Diff.: +91%
Basal pressure [8]: h: 4.70 ± 1.14 cm H2O
Bladder capacity [8]: h: 1.43 ± 0.11 ml
Micturition pressure [8]: h: 57 ± 10 cm H2O
Micturition volume [8]: h: 1.31 ± 0.12 ml
Residual volume [8]: h: 0.12 ± 0.002 ml
Threshold pressure [8]: h: 15.0 ± 2.58 cm H2O
Basal pressure [9]: v: 4.16 ± 0.62 cm H2O
Bladder capacity [9]: v: 1.21 ± 0.06 ml
Micturition pressure [9]: v: 73 ± 12 cm H2O
Micturition volume [9]: v: 1.07 ± 0.06 ml
Residual volume [9]: v: 0.14 ± 0.03 ml
Threshold pressure [9]: v: 7.85 ± 1.04 cm H2O
effect on bladder parameters (in words) (5 mg/kg i.v.): has an effect
Basal pressure [10]: Diff.: +53%
Bladder capacity [10]: Diff.: −2%
Inter-contraction interval [10]: Diff.: +7%
Micturition pressure [10]: Diff.: −15%
Micturition volume [10]: Diff.: +46%
Residual volume [10]: Diff.: −95%
Threshold pressure [10]: Diff.: +140%
Basal pressure [11]: h: 6.46 ± 1.13 cm H2O
Bladder capacity [11]: h: 0.90 ± 0.09 ml
Micturition pressure [11]: h: 51 ± 7 cm H2O
Micturition volume [11]: h: 1.18 ± 0.12 ml
Residual volume [11]: h: 0.006 ± 0.003 ml
Threshold pressure [11]: h: 19.20 ± 3.02 cm H2O
Basal pressure [12]: v: 4.23 ± 0.35 cm H2O
Bladder capacity [12]: v: 0.92 ± 0.08 ml
Micturition pressure [12]: v: 60 ± 4 cm H2O
Micturition volume [12]: v: 0.81 ± 0.07 ml
Residual volume [12]: v: 0.11 ± 0.02 ml
Threshold pressure [12]: v: 8.0 ± 1.10 cm H2O
bladder capacity (in words) (rat, in vivo): distinct increase

(+)-O-desmethyltramadol [(+)-M1]
Basal pressure [1]: Diff.: +7%
Bladder capacity [1]: Diff.: +31%
Inter-contraction interval [1]: Diff.: +31%
Micturition pressure [1]: Diff.: −22%
Micturition volume [1]: Diff.: +48%
Residual volume [1]: Diff.: −73%
Threshold pressure [1]: Diff.: +32%
Basal pressure [2]: h: 3.87 ± 0.43 cm H2O
Bladder capacity [2]: h: 0.98 ± 0.06 ml
Inter-contraction interval [2]: 5.51 ± 0.52 min
Micturition pressure [2]: h: 70 ± 11 cm H2O
Micturition volume [2]: h: 0.95 ± 0.09 ml
Residual volume [2]: h: 0.03 ± 0.02 ml
Threshold pressure [2]: h: 8.07 ± 0.97 cm H2O
Basal pressure [3]: v: 3.62 ± 0.24 cm H2O
Bladder capacity [3]: v: 0.75 ± 0.08 ml
Inter-contraction interval [3]: 4.20 ± 0.55 min
Micturition pressure [3]: v: 90 ± 12 cm H2O
Micturition volume [3]: v: 0.64 ± 0.10 ml
Residual volume [3]: v: 0.11 ± 0.02 ml
Threshold pressure [3]: v: 6.12 ± 0.51 cm H2O
Basal pressure [7]: Diff.: +25%
Bladder capacity [7]: Diff.: +44%
Inter-contraction interval [7]: Diff.: +46%
Micturition pressure [7]: Diff.: −30%
Micturition volume [7]: Diff.: +51%
Residual volume [7]: Diff.: −33%
Threshold pressure [7]: Diff.: +106%
Basal pressure [8]: h: 4.90 ± 0.55 cm H2O
Bladder capacity [8]: h: 1.35 ± 0.11 ml
Inter-contraction interval [8]: 7.63 ± 0.60 min
Micturition pressure [8]: h: 66 ± 10 cm H2O
Micturition volume [8]: h: 1.28 ± 0.09 ml
Residual volume [8]: h: 0.06 ± 0.02 ml
Threshold pressure [8]: h: 15.34 ± 1.16 cm H2O
Basal pressure [9]: v: 3.91 ± 0.31 cm H2O
Bladder capacity [9]: v: 0.94 ± 0.08 ml
Inter-contraction interval [9]: 5.23 ± 0.45 min
Micturition pressure [9]: v: 94 ± 10 cm H2O
Micturition volume [9]: v: 0.85 ± 0.08 ml
Residual volume [9]: v: 0.09 ± 0.02 ml
Threshold pressure [9]: v: 7.44 ± 1.10 cm H2O
bladder capacity (in words) (0.1 and 0.5 mg/kg i.v.): increased
interval between micturition (in words) (0.1 and 0.5 mg/kg i.v.): extended
threshold pressure (in words) (0.1 and, in particular, 0.5 mg/kg i.v.): distinct rise
